Laboratory results: paper PMC9550238, “Novel TRKB agonists activate TRKB and downstream ERK and AKT signaling to protect Aβ-GFP SH-SY5Y cells against Aβ toxicity” (Aging (Albany NY), 2022)
Like-named read-outs stand apart in the source and are kept apart here. One block for each molecule: values may come before it.

Experiments:
[1] = in vitro; format: in vitro ADME
Experimental: The permeability of LMDS-1 and -2 was determined by a PAMPA-BBB assay. Firstly, 300 μl of LMDS-1 or -2 (1 μM) solution were added to the donor well (Millipore). Bupropion (a high permeability marker), piroxicam (a low permeability marker), and lucifer yellow (an integrity marker) (Sigma-Aldrich) were used as quality control (QC) compounds for comparison. The sandwich with aqueous donor on the bottom, artificial lipid membrane (PVDF filter coated with porcine polar brain lipid) in the middle, and aqueous acceptor (5% DMSO in PBS) on the top was assembled as stated. Each compound was tested in triplicate. After incubation for 18 h at the ambient temperature, the PAMPA sandwich plate was separated. The concentrations of test and QC compounds in the donor and acceptor wells were measured as stated, and the effective permeability coefficient (Pe) was computed.

[2] = test system: Aβ-GFP SH-SY5Y cells; assay: Neurite outgrowth analysis; format: cell-based, Human; details: 5 μM; induced untreated 3.0, uninduced 3.9
Experimental: (§1) As stated, Aβ-GFP SH-SY5Y cells were seeded (6 × 10^4/24-well) with retinoic acid addition on day 1, treated with tested compounds (5 μM) plus induced Aβ-GFP expression (5 μg/ml doxycycline) on day 2, and stained with TUBB3 (tubulin beta 3 class III) primary antibody (1:1000; Covance #MMS-435P, Princeton, NJ, USA), goat anti-rabbit Alexa Fluor® 555 secondary antibody (1:1000; Thermo Fisher Scientific #A27039), and DAPI (4′-6-diamidino-2-phenylindole, 0.1 μg/ml; Sigma-Aldrich) on day 8 [60]. Neuronal pictures were taken using the high-content system and analyzed for neurite length (μm), process (number of neurites protruding from neuronal cell body) and branch (number of neurites extending from process) (MetaXpress neurite outgrowth application module; Molecular Devices). In each of three independent experiments, roughly 6000 cells from each sample were examined.

[3] = test system: Aβ-GFP SH-SY5Y cells; assay: Aβ folding reporter GFP fluorescence; format: cell-based, Human; details: for intensity of GFP fluorescence: untreated cells 100%; for EC50: Homo sapiens, 144 h, Aβ-GFP SH-SY5Y cells, compounds 1.2–5 μM, Dox 6 days, read-out: Aβ aggregation inhibition EC50 (GFP fluorescence)
Experimental: Human neuroblastoma SH-SY5Y-derived Aβ-GFP cells were maintained as stated. The recombinant Aβ-GFP protein has a 12 amino acid-containing linker between the fused Aβ and GFP. Doxycycline (5 μg/ml; Sigma-Aldrich) was used to induce Aβ-GFP expression.
Neuronal differentiation of Aβ-GFP SH-SY5Y cells was induced by retinoic acid (10 μM; Sigma-Aldrich). Cells on 96-well plate (2.5 × 10^4/well) were seeded on day 1, pre-treated with test compounds (1.2–5 μM) plus induced Aβ-GFP expression (5 μg/ml doxycycline) on day 2, and stained with Hoechst 33342 (0.1 μg/ml; Sigma-Aldrich) on day 8 as stated. Cell images were then captured at 482 nm excitation/536 nm emission wavelengths (ImageXpress Micro Confocal high-content system) and analyzed (MetaXpress image acquisition and analysis software) (Molecular Devices, Sunnyvale, CA, USA). In addition, ROS was quantified on day 8 following CellROX Deep Red stain (5 μM; Molecular Probes, Waltham, MA, USA) using the high-content system with excitation/emission wavelengths of 644/665 nm.

[4] = DPPH free radical scavenging assay; format: biochemical; details: compounds 10–160 μM
Experimental: (§2) Thioflavin T is widely used to visualize and quantify the presence of misfolded amyloid protein aggregates in vitro [59]. […] In addition, DPPH radical (Sigma-Aldrich) was used to assay the free radical scavenging capacity of kaempferol, LM-031 and analogs (10–160 μM) as stated.

[5] = target: T1, Aβ42 peptide (Homo sapiens, UniProt P05067); assay: Thioflavin T Aβ aggregation inhibition assay; format: biochemical; details: Aβ42, compounds 5–20 μM
T1 construct: assessed by using Aβ42 peptide (AnaSpec, Fremont, CA, USA); purchased AnaSpec
Experimental: as §2

[6] = test system: Aβ-GFP SH-SY5Y cells; assay: ERK/PI3K kinase inhibitor treatment, immunoblot of TRKB downstream targets; format: cell-based, Human; details: 5 μM; induced untreated 61–64%
[7] = test system: Aβ-GFP SH-SY5Y cells; assay: as above; format: cell-based, Human
Experimental: Cells were plated in the presence of retinoic acid (5 × 10^5/6-well) on day 1, treated with tested compounds (5 μM) plus induced Aβ-GFP expression with doxycycline (5μg/ml) on day 2, as stated. Kinase inhibitors U0126 (an inhibitor of ERK) or wortmannin (an inhibitor of PI3K) (LC Laboratories, Woburn, MA, USA) (10 μM) were added on day 6. The cells were collected on day 8 for BDNF, BCL2, BAX, total/phosphorylated TRKB, ERK, AKT, and CREB protein analysis as previously stated.
(§3) Total proteins from Aβ-GFP SH-SY5Y cells were prepared, quantified, electrophoretically separated and blotted as stated. Following blocking, the membrane was probed with antibody against BDNF (1:500; Santa Cruz Biotechnology #sc-546, Santa Cruz, CA, USA), BCL2 (1:200; Santa Cruz Biotechnology #sc-7382), BAX (1:200; Santa Cruz Biotechnology #sc-7480), TRKB (1:500; Cell Signaling Technology #4603, Danvers, MA, USA), p-TRKB (Y516) (1:200; GeneTex #GTX32230, Irvine, CA, USA), p-TRKB (Y816) (1:1000; Millipore #ABN1381, Billerica, MA, USA), ERK (1:1000; Cell Signaling Technology #9102), p-ERK (T202/Y204) (1:1000; Cell Signaling Technology #9101), AKT (1:1000; Abcam #ab126811, Cambridge, CB, UK), p-AKT (S473) (1:1000; Cell Signaling Technology #4060), CREB (1:500; Santa Cruz Biotechnology #sc-186), p-CREB (S133) (1:1000; Millipore #06-519), or loading control GAPDH (glyceraldehyde-3-phosphate dehydrogenase) (1:1000; MDBio #30000002, Taipei, Taiwan). The immune complexes were detected as stated.

[8] = test system: Aβ-GFP SH-SY5Y cells; assay: Comparison of BDNF and LMDS compounds on TRKB signaling, immunoblot; format: cell-based, Human; details: for p-CREB: induced untreated 42%; for p-ERK: induced untreated 64%; for p-AKT: induced untreated 65%
Experimental: as §3

[9] = set-up: method as in PMID 32496635; details: cited from earlier work
[10] = test system: Aβ-GFP SH-SY5Y cells; assay: TRKB RNA interference, neurite outgrowth; format: cell-based, Human; details: 5 μM
Experimental: as §1
To knock down TRKB expression in Aβ-GFP SH-SY5Y cells, lentiviral short hairpin RNA (shRNA) targeting TRKB and control (scrambled) were used. Cells were plated in the presence of retinoic acid (5 × 10^5/6-well for protein analysis or 6 × 10^4/24-well for neurite outgrowth analysis) on day 1, infected with lentivirus on day 2, pretreated with test compound (5 μM) plus inducing Aβ-GFP expression on day 3, and collected for neurite outgrowth or TRKB protein analysis on day 9 as stated.

[11] = 5 μM plus U0126 or wortmannin 10 μM
[12] = 5 μM, no kinase inhibitor, induced untreated 70–71%

T1 sequence (P05067 672-713 limits assumed): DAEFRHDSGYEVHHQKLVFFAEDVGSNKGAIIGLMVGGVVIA

Molecule: CN1C(C(=O)Nc2ccccn2)=C(O)c2ccccc2S1(=O)=O [Piroxicam, piroxicam, reference compound]
Papp at 18 h, 1 μM ([1]; PAMPA): 1.65 ± 0.17 ×10⁻⁶ cm/s

Molecule: COc1cc(/C=C/C(=O)CC(=O)/C=C/c2ccc(O)c(OC)c2)ccc1O [Curcumin, curcumin, reference compound]
neurite process [2]: 3.7–3.8 | intensity of GFP fluorescence ([3]; 2.5–5 μM): 113–140% | EC50 [3]: 6.1 µM

Molecule: lucifer yellow [reference compound]
% transport ([1]; PAMPA): 0.00 (% Transport)

Molecule: O=c1ccc2ccccc2o1 [Coumarin, coumarin, reference compound]
EC50 [4]: 179 µM | EC50 [5]: 25 µM | intensity of GFP fluorescence ([3]; 1.2–5 μM): 113–140% | EC50 [3]: 9.8 µM

Molecule: O=C(c1ccccc1)c1cc2c(O)cccc2oc1=O [LM-031, 3-benzoyl-5-hydroxychromen-2-one]
Measured Pe ([9]; PAMPA-BBB): 4.80 ± 0.12 10^−6 cm/s | PAMPA-BBB classification ([9]; from Pe of ref 34): BBB^+ (high) | EC50 [4]: 104 µM | neurite process [2]: 3.7–3.8 | EC50 [5]: 9 µM | neurite process ([10]; scrambled shRNA, induced untreated 2.6): 3.8 | neurite process ([10]; shRNA targeting TRKB): 2.5 | intensity of GFP fluorescence ([3]; 1.2–5 μM): 111–149% | EC50 [3]: 5.9 µM

Molecule: CC(NC(C)(C)C)C(=O)c1cccc(Cl)c1 (stereo not shown) [Bupropion, bupropion, reference compound]
Papp at 18 h, 1 μM ([1]; PAMPA): 17.1 ± 1.09 ×10⁻⁶ cm/s

Molecule: O=c1c(O)c(-c2ccc(O)cc2)oc2cc(O)cc(O)c12 [Kaempferol, kaempferol, reference compound]
EC50 [4]: 28 µM

B1: BDNF: Brain-derived neurotrophic factor, a neurotrophic factor binding TRKB (protein, UniProt P23560 19-247, looked up)
Neurotrophic factor BDNF …: APMKEANIRGQGGLAYPGVRTHGTLESVNGPKAGSRGLTSLADTFEHVIEELLDEDQKVRPNEENNKDADLYTSRVMLSSQVPLEPPLLFLLEEYKNYLDAANMSMRVRRHSDPARRGELSVCDSISEWVTAADKKTAVDMSGGTVTVLEKVPVSKGQLKQYFYETKCNPMGYTKEGCRGIDKRHWNSQCRTTQSYVRALTMDSKKRIGWRFIRIDTSCVCTLTIKRGR
p-CREB ([8]; 100 ng/ml): 85–97% | p-ERK ([8]; 100 ng/ml): 94–111% | p-AKT ([8]; 100 ng/ml): 115–118%

Continued, in another order:

EC50 [4]: 116 µM | EC50 [5]: < 5 µM | EC50 [3]: 7.2 µM | recovery at 18 h, 1 µM ([1]; PAMPA): 12.7%
Molecule: CC(=O)Oc1ccc2cc(C(=O)c3ccccc3)c(=O)oc2c1 [LMDS-4]
intensity of GFP fluorescence ([3]; 1.2–5 μM): 111–149%

EC50 [4]: 167 µM | EC50 [5]: 14 µM | EC50 [3]: 11 µM | PAMPA-BBB classification [1]: BBB^+ (high) | Papp at 18 h, 1 μM ([1]; PAMPA): 11.8 ± 4.11 ×10⁻⁶ cm/s
Molecule: COc1ccc2cc(C(=O)c3ccccc3)c(=O)oc2c1 [LMDS-3]
intensity of GFP fluorescence ([3]; 2.5–5 μM): 111–149%

EC50 [4]: 146 µM | EC50 [5]: 18 µM | EC50 [3]: 7.5 µM | PAMPA-BBB classification [1]: BBB^+ (moderate) | Papp at 18 h, 1 μM ([1]; PAMPA): 3.81 ± 0.13 ×10⁻⁶ cm/s
Molecule: O=C(c1ccccc1)c1cc2ccc(O)cc2oc1=O [LMDS-2]
p-TRKB Y516 and Y817 [6]: 113–123% | p-ERK level ([7]; 5 μM plus U0126 10 μM): 38–43% | BAX [7, 11]: 152–191% | BCL2 [7, 11]: 80–121% | p-CREB [7, 11]: 52–84% | pro- and m-BDNF [7, 11]: 65–88% | BCL2 ([7]; 5 μM, induced untreated 44%): 156–199% | p-CREB ([7]; 5 μM, induced untreated 66%): 127–142% | pro- and m-BDNF ([7]; 5 μM, induced untreated 68–52%): 100–169% | BAX ([7]; 5 μM, induced untreated 225%): 121–130% | p-AKT level [7, 12]: 110–111% | p-ERK level [7, 12]: 115% | p-CREB ([8]; 5 μM): 85–97% | p-ERK ([8]; 5 μM): 94–111% | p-AKT ([8]; 5 μM): 115–118% | intensity of GFP fluorescence ([3]; 1.2–5 μM): 111–149%

EC50 [4]: 117 µM | EC50 [5]: < 5 µM | EC50 [3]: 6 µM | PAMPA-BBB classification [1]: BBB^+ (high) | Papp at 18 h, 1 μM ([1]; PAMPA): 14.9 ± 3.61 ×10⁻⁶ cm/s
Molecule: CCOc1ccc2cc(C(=O)c3ccccc3)c(=O)oc2c1 [LMDS-1]
p-TRKB Y516 and Y817 [6]: 113–123% | p-ERK level ([7]; 5 μM plus U0126 10 μM): 38–43% | BAX [7, 11]: 152–191% | BCL2 [7, 11]: 80–121% | p-CREB [7, 11]: 52–84% | pro- and m-BDNF [7, 11]: 65–88% | BCL2 ([7]; 5 μM, induced untreated 44%): 156–199% | p-CREB ([7]; 5 μM, induced untreated 66%): 127–142% | pro- and m-BDNF ([7]; 5 μM, induced untreated 68–52%): 100–169% | BAX ([7]; 5 μM, induced untreated 225%): 121–130% | p-AKT level [7, 12]: 110–111% | p-ERK level [7, 12]: 115% | p-CREB ([8]; 5 μM): 85–97% | p-ERK ([8]; 5 μM): 94–111% | p-AKT ([8]; 5 μM): 115–118% | intensity of GFP fluorescence ([3]; 1.2–5 μM): 111–149%
